# Patent US20250092383A1, “COMPOUNDS AND METHODS FOR FBXO22-MEDIATED PROTEIN DEGRADATION” (Northwestern University, priority 2023, published 2025)
# Assays:
# FBXO22 = biological target: T1, FBXO22 (Homo sapiens, UniProt Q8NEZ5); test: Competitive cysteine-directed activity-based protein profiling (ABPP); format: binding
# T1 construct: expressed in transfected cells; host or cells: HEK293T
# T1 sequence (Q8NEZ5 1-403): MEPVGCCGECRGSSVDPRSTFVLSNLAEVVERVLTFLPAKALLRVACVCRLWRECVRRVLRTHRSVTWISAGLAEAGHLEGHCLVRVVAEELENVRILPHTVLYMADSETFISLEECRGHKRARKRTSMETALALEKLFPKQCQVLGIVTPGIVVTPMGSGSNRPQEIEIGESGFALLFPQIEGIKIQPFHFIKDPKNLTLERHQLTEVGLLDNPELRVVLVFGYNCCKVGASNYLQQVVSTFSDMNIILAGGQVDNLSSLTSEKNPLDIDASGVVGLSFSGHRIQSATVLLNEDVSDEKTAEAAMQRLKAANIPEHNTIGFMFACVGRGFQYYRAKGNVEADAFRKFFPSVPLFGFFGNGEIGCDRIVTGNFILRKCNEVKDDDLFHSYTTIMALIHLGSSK
# From the text: (§1) FIGS. 3A-3H show FBXO22 C227 and C228 are involved in 22-SLF-mediated degradation of FKBP12. […] Among 5,650 quantified IA-DTB-modified peptides, four cysteines were identified on FBXO22 (C83, C117, C228, and C365). […] Data are presented as the mean values (n=2 biological independent samples for DMSO treatment; n=3 biological independent samples for 22-SLF Treatment). […] The bag graph represents quantification of the FLAG-FKBP12/HSP90 protein content. Data are presented as mean values (n=2 biological independent samples). […] The bar graph represents quantification of the FLAG-FKBP12/HSP90 protein content. Data are presented as the mean values (n=2 biological independent samples).
# To identify the cysteine residue(s) in FBXO22 engaged with 22-SLF, HA-FBXO22-expressing HEK293T cells were treated with either DMSO or 22-SLF (2 μM, 2 hours). Using competitive cysteine-directed activity-based protein profiling (ABPP), a chemical proteomics for the measurement of target engagement, the degree of blockade of iodoacetamide-desthiobiotin (IA-DTB)-modified cysteines on FBXO22 was quantified. From a pool of 5,650 quantified IA-DTB-modified peptides, four cysteines on FBXO22 (C83, C117, C228, and C365) (FIG. 3a) were identified, with approximately 20% of FBXO22 C228 being blocked by 22-SLF treatment (FIG. 3b), indicating the potential interaction with this cysteine by 22-SLF. […]
# FKBP12 (mouse FBXO22) [1] = biological target: T2, FKBP12 (mouse FBXO22) (UniProt P62942+Q78JE5); test: FKBP12 degradation in HEK293T cells expressing mouse FBXO22; format: cell-based; conditions: HEK293T cells expressing mouse FBXO22 wildtype
# T2 construct: expressed in transfected cells; host or cells: HEK293T
# From the text: as §1
# (§2) Intriguingly, the peptide sequence containing the two consecutive cysteines (C227 and C228) is identical between human and mouse (FIG. 3f). To explore whether mouse FBXO22 can facilitate 22-SLF-induced FKBP12 degradation and if the conserved cysteines (C226 and C227 in mouse FBXO22) are pivotal, HEK293T cells expressing mouse FBXO22 wildtype, C226A, C227A, and C226AC227A, were generated.
# FKBP12 (mouse FBXO22) [2] = biological target: T3, FKBP12 (mouse FBXO22) (UniProt P62942+Q78JE5, C226A/C227A); test: as above; format: cell-based; conditions: HEK293T cells
# T3 construct: expressed in transfected cells; host or cells: HEK293T
# From the text: as §1, §2
# FKBP12 (mouse FBXO22) [3] = test: as above; format: cell-based; conditions: HEK293T cells
# From the text: as §1, §2
# [4] = biological target: T4, FKBP12 interactome (SKP1-CUL1-RBX1 E3 complex) (Homo sapiens, UniProt P62942+Q8NEZ5); test: FKBP12-directed enrichment proteomic analysis; format: cell-based; conditions: 22-SLF (2 μM) and MG132 (5 μM)
# T4 construct: expressed in transfected cells; host or cells: HEK293T (FLAG-FKBP12 and HA-FBXO22 expressed; SKP1, CUL1 and RBX1 are the cells' own)
# From the text: (§3) FIGS. 4A-4C show 22-SLF induces the formation of a ternary complex involving 22-SLF, FKBP12 and FBXO22. […] The bar graph represents quantification of the immunoprecipitated HA-FBXO22 protein content compared to the HA-FBXO22 protein in whole cell lysates (WCL). Data are presented as the mean values (n=2 biological independent samples). […] Data are presented as the mean values (n=2 biological independent samples).
# (§4) To comprehensively assess the impact of 22-SLF on the FKBP12 interactome landscape, an enrichment proteomic approach was employed to identify proteins co-immunoprecipitating with FLAG-FKBP12 from HEK293T cells treated with 22-SLF. […] Furthermore, another enrichment proteomic study was conducted comparing FKBP12 interactome landscape in HEK293T cells expressing FBXO22 wildtype and C227AC228A double mutant. […] Collectively, these findings indicate that 22-SLF effectively drives the formation of a ternary complex involving 22-SLF, FBXO22 and FKBP12 by engaging C227/228 in FBXO22, thereby facilitating the subsequent degradation of FKBP12.
# [5] = biological target: T5, FKBP12 interactome (SKP1-CUL1-RBX1 E3 complex) (Homo sapiens, UniProt P62942+Q8NEZ5, C227A/C228A); test: FKBP12-directed enrichment proteomic analysis; format: cell-based; conditions: 22-SLF (2 μM) and MG132 (5 μM)
# T5 construct: expressed in transfected cells; host or cells: HEK293T (FLAG-FKBP12 and HA-FBXO22 expressed; SKP1, CUL1 and RBX1 are the cells' own)
# From the text: as §3, §4
# FKBP12 = FKBP12 (Homo sapiens, UniProt P62942); test: Global proteomic analysis in HEK293T cells expressing FBXO22 wildtype or C227AC228A; format: cell-based; set-up: expressed in transfected cells; host or cells: HEK293T; conditions: 0.5 μM, 24 hours
# From the text: as §1
# FIGS. 9A-9B show FBXO22 C227 and C228 are involved in 22-SLF-mediated degradation of FKBP12.
# Global proteomic analysis in FBXO22 wildtype- and C227AC228A-expressing HEK293T cells was conducted, comparing the effects of 22-SLF treatment on the expression level of FKBP12. […] Using this predicted human FBXO22 structure, a model structure of the interaction with the electrophilic portion of 22-SLF was conducted.
# FKBP12, sequence (P62942 whole entry): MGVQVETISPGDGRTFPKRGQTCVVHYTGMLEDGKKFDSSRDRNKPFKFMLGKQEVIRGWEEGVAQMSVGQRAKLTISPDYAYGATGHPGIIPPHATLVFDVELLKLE
# T4 sequence (P62942 2-108, one chain of several): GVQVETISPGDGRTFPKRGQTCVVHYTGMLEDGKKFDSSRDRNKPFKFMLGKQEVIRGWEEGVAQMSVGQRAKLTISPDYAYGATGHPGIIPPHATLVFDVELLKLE
# T4 sequence (P63208 whole entry partner, one chain of several): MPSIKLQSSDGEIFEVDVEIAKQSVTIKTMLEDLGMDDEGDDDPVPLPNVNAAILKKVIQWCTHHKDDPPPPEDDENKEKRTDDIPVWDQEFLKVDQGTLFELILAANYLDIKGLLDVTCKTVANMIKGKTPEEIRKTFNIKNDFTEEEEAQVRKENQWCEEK
# T2 sequence (P62942 2-108): as the sequence (P62942 2-108, one chain of several) above
# T2 sequence (Q78JE5 whole entry): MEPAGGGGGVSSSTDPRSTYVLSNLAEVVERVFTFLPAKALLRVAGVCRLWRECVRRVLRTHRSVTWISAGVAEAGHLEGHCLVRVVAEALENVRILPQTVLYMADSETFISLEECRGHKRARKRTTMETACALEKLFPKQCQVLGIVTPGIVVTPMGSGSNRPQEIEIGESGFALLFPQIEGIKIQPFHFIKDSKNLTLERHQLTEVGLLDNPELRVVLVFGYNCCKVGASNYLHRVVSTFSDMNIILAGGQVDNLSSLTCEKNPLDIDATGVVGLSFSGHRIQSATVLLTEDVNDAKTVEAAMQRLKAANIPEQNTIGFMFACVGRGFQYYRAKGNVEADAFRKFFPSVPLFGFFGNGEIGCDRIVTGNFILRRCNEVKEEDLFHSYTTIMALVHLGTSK
# T2 sequence (P63208 whole entry partner): as the sequence (P63208 whole entry partner, one chain of several) above
# T3 sequence (P62942 2-108): as the sequence (P62942 2-108, one chain of several) above
# T3 sequence (Q78JE5 whole entry C226A/C227A): as the sequence (Q78JE5 whole entry) above, with C226A, C227A counted along it
# T5 sequence (P62942 2-108): as the sequence (P62942 2-108, one chain of several) above
# T5 sequence (Q8NEZ5 whole entry C227A/C228A): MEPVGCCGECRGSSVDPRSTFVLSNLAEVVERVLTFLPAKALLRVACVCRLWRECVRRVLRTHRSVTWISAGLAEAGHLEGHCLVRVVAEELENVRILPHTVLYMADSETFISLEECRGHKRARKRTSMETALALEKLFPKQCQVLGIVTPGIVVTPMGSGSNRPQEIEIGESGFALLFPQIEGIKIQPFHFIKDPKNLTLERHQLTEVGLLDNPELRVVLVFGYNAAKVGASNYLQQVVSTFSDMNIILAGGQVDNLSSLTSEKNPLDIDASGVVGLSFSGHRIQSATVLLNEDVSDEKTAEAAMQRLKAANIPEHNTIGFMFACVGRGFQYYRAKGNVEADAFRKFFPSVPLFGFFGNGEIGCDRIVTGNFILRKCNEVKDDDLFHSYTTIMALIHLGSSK
# T5 sequence (P63208 whole entry partner): as the sequence (P63208 whole entry partner, one chain of several) above
smiles,measurement,setting,value
CCC(C)(C)C(=O)C(=O)N1CCCC[C@H]1C(=O)O[C@H](CCc1ccc(OC)c(OC)c1)c1cccc(OCC(=O)NCCCOCCOCCOCCCN(C(=O)CCl)C(C(=O)NCc2ccccc2)c2nc3ccccc3s2)c1 (stereo partly shown) [22-SLF],Blockade of IA-DTB-modified FBXO22 C228,"FBXO22; 2 μM, 2 hours, HA-FBXO22-expressing HEK293T cells",approximately 20%
same,Engagement of FBXO22 C227,FBXO22; FIG. 3b,approximately 20%
same,"FKBP12 degradation, mouse FBXO22 wildtype",FKBP12 (mouse FBXO22) [1],induced FBKP12 degradation
same,"FKBP12 degradation, mouse FBXO22 double mutant C226AC227A",FKBP12 (mouse FBXO22) [2],fully blocked the degradation
same,"FKBP12 degradation, mouse FBXO22 single mutants C226A and C227A",FKBP12 (mouse FBXO22) [3],partially impeded degradation
same,"FBXO22 complex enrichment, FBXO22 wildtype-expressing cells",[4],enrichment of the FBXO22 complex
same,Proteins co-immunoprecipitating with FLAG-FKBP12,[4]; HEK293T cells,"FBXO22 itself, SKP1, CUL1, and NEDD8, as proteins recruited by 22-SLF"
same,"FBXO22 complex enrichment, FBXO22 C227AC228A-expressing cells",[5],enrichment was absent
same,"FKBP12 degradation in global proteomics, FBXO22 C227AC228A cells",FKBP12; HEK293T HA-FBXO22 C227AC228A,no degradation observed
same,"Proteins degraded among 7,936 quantified proteins, FBXO22 wildtype cells",FKBP12; HEK293T HA-FBXO22 wildtype,FKBP12 was the only protein degraded
